Publication PMC12406681 (Antimicrobial Agents and Chemotherapy, 2025)
Read-outs that look alike come from different tables or passages of the source.

Tests used:
Assay type in all cases: cell-based, La Crosse virus
LACV V27A mutant [1] = conditions: Vero cells; for Fold change (/original stock) / Fold change (/passage control): EC50 ratio; for EC50: mean ± SD
LACV D35G mutant [2] = conditions: Vero cells; for Fold change (/original stock) / Fold change (/passage control): EC50 ratio; for EC50: mean ± SD
LACV V27A mutant [3] = tested on: LACV V27A mutant
LACV D35G mutant [4] = tested on: LACV D35G mutant

Row | SMILES | Fold change (/original stock) (LACV V27A mutant [1]) | Fold change (/passage control) (LACV V27A mutant [1]) | EC50 (LACV V27A mutant [1]) [µM] | Fold change (/original stock) (LACV D35G mutant [2]) | Fold change (/passage control) (LACV D35G mutant [2]) | EC50 (LACV D35G mutant [2]) [µM] | EC50 (LACV V27A mutant [3]) [µM] | Fold change (/original stock) (LACV V27A mutant [3]) | Fold change (/passage control) (LACV V27A mutant [3]) | EC50 (LACV D35G mutant [4]) [µM] | Fold change (/original stock) (LACV D35G mutant [4]) | Fold change (/passage control) (LACV D35G mutant [4])
1 | NC(=O)c1nc(F)c[nH]c1=O [T-705, favipiravir, reference compound] | 1.17 | 1.01 | 44.3 ± 5.15 | 1.51 | 1.30 | 57 ± 11.8 | – | – | – | – | – | –
2 | CC(C)N1CN(C2c3ccccc3CCc3ccccc32)n2cc(C(=O)O)c(=O)c(O)c2C1=O [CAPCA-1, carbamoyl pyridone carboxylic acid (CAPCA)-1] | 12.91 | 7.03 | 5.55 ± 1.64 | >46.51 | >25.32 | > 20 | 4.63 ± 0.8 | 4.87 | 7.12 | 12.9 ± 2.22 | 13.57 | 19.83
